The source of these data is article PMC8241751, “Influence of the Dabcyl group on the cellular uptake of cationic peptides: short oligoarginines as efficient cell-penetrating peptides” (Amino Acids, 2021).

Where “and” joins values, the source holds several entries; their conditions need not be identical. Equal entries are not always repeated. Where a SMILES comes first, the peptide text is derived from it. The star is where a group is joined. 5FAM = O=C1OC2(c3ccc(O)cc3Oc3cc(O)ccc32)c2ccc(C(=O)*)cc21; X1 = CN(C)c1ccc(/N=N/c2ccc(C(=O)*)cc2)cc1

Broadly, the IC50 is the concentration at which inhibition is half-maximal. Low values mean greater potency in that assay, high ones weaker potency in that assay.

For one series, the system named is MCF-7 cells. The series can be described thus: In vitro cytostatic activity (MTT) on MCF-7. It is filed as cell-based, human. Conditions: 3 h incubation, then 3 days in serum-containing medium, MTT assay, ± sd, three independent experiments with four parallels. How it is done: The cells (HL-60 or MCF-7) were grown to confluency and were plated into 96-well plate with initial cell number of 5 × 10^3 per well. After 24 h incubation at 37 °C, cells were treated with the compounds at 1.28 × 10^–3–100 μM concentration range for 3 h in 200 μL final volume. Control cells were treated with serum free medium at 37 °C for 3 h. After incubation the cells were washed twice with serum free medium. For the analysis of the in vitro cytostatic effect, cells were cultured for an additional 72 h in serum containing medium. On day 4, MTT assay was carried out to determine the IC50 values of the compounds. Briefly, 45 μL of MTT solution was added to each well (2 mg/mL, dissolved in serum-free medium). […] The precipitated purple crystals were dissolved in 100 μL DMSO and the absorbance was determined at λ = 540 nm and λ = 620 nm using ELISA plate reader (iEMSReader, Labsystems, Finland). The percent of cytostasis was calculated using the following equation: Cytostatic effect (%) = [1 − (ODtreated/ODcontrol)] × 100; where ODtreated and ODcontrol correspond to the optical densities of the treated and the untreated control cells, respectively. […] The curves were defined using MicrocalTM Origin (version 9.2) software: cytostasis was plotted as a function of concentration, fitted to a sigmoidal curve, and based on this curve, the IC50 value was determined.

In the next series the test system is MDA-MB-231 cells. As to the kind of experiment: In vitro cytostatic activity (MTT) on MDA-MB-231. It is filed as cell-based, human. Conditions: 3 h incubation, then 3 days in serum-containing medium, MTT assay, ± sd. For orientation: Tetrazolium dyes change colour on reduction, which living cells bring about.
The test system of series [1] is HL-60 cells. As to the kind of experiment: In vitro cytostatic activity (MTT) on HL-60. In kind it is cell-based, human. Conditions: HL-60; 3 h incubation, then 3 days in serum-containing medium; MTT assay; ± sd, three independent experiments with four parallels. How it is done: The cells (HL-60 or MCF-7) were grown to confluency and were plated into 96-well plate with initial cell number of 5 × 10^3 per well. After 24 h incubation at 37 °C, cells were treated with the compounds at 1.28 × 10^–3–100 μM concentration range for 3 h in 200 μL final volume. Control cells were treated with serum free medium at 37 °C for 3 h. After incubation the cells were washed twice with serum free medium. For the analysis of the in vitro cytostatic effect, cells were cultured for an additional 72 h in serum containing medium. On day 4, MTT assay was carried out to determine the IC50 values of the compounds. Briefly, 45 μL of MTT solution was added to each well (2 mg/mL, dissolved in serum-free medium). Following the 4 h incubation, plates were centrifuged at 900 g for 5 min, and the supernatant was removed. The precipitated purple crystals were dissolved in 100 μL DMSO and the absorbance was determined at λ = 540 nm and λ = 620 nm using ELISA plate reader (iEMSReader, Labsystems, Finland). The percent of cytostasis was calculated using the following equation: Cytostatic effect (%) = [1 − (ODtreated/ODcontrol)] × 100; where ODtreated and ODcontrol correspond to the optical densities of the treated and the untreated control cells, respectively. In each case three independent experiments were carried out with four parallel measurements. […] The curves were defined using MicrocalTM Origin (version 9.2) software: cytostasis was plotted as a function of concentration, fitted to a sigmoidal curve, and based on this curve, the IC50 value was determined.

For series [2], the system named is CHO-K1 cells. As to the kind of experiment: Relative quantification of total internalised peptide by flow cytometry. Conditions: CHO-K1, 1 h, DMEM-F12, internalisation ratio by flow cytometry, intact cells, 20.000 cells. How it is done:
After incubation and washing the cells with HBSS, 500 μL 0.05% trypsin/EDTA 0.05% (37 °C) or 500 µL pronase 0.05% in 100 mM Tris-buffer (4 °C) was added for 5 min to hydrolyze the remaining extracellular peptide, the membrane-bound peptide and to detach cells. After addition of 100 µL enzyme inhibitors (complete mini at 4 °C (Roche) or trypsin inhibitor (soybean inhibitor 5 mg/mL) at 37 °C mixed with 100 μL bovine serum albumin (1 mg/mL). Cells were transferred into a microtube, centrifuged, washed with 1 mL 50 mM Tris-buffer pH 7.4, 0.1% BSA, and the cell pellet was suspended in 400 μL of PBS. The fluorescence of individual cells was analysed with a FACS Calibur flow cytometer. 20.000 cells were measured for each experimental condition. The mean fluorescence of a sample was obtained by subtracting the autofluorescence of cells from the measured mean fluorescence of cells in the presence of the peptide.
A general note: Flow cytometry measures light scatter and fluorescence of single cells or particles in a stream.

In series [3] the test system is HL-60 cells. The series can be described thus: Cellular uptake by flow cytometry on HL-60 cells. The settings on record: HL-60, 90 min, 37 °C, serum-free, concentrations of the two values not stated, Dabcyl quenches Cf. It is filed as cell-based, human. How it is done:
HL-60 cells were cultured as described above. To study the cellular uptake of fluorescent labelled compounds, 10^5 cells per well were plated on 24-well plates. After 24 h incubation at 37 °C, cells were treated with the compounds solved in the corresponding serum-free media for 90 min. The cellular uptake was analysed at 1, 5 and 10 µM concentrations. Cells treated with serum-free media for 90 min were used as control. After incubation, treatment solutions were removed and the cells were treated with 100 μL trypsin for 2 min to remove the membrane proteins in order to eliminate non-specific binding of conjugates. The effect of trypsin was terminated by 900 μL HPMI (glucose, NaHCO3, NaCl, HEPES, KCl, MgCl2, CaCl2, Na2HPO4·2H2O) (Kapus et al. [1994]) containing 10% foetal calf serum, and the cells were transferred from the plate to FACS-tubes. Cells were centrifuged at 216 g at 4 °C for 5 min and the supernatant was removed. After this procedure, cells were resuspended in 500 µL HPMI, and the intracellular fluorescence intensity of HL-60 cells was monitored (on channel FITC LP505; emission at λ = 505 nm; LP 505, BP 530/30) by flow cytometry (BD LSR II, BD Bioscience, San Jose, CA, equipped with 488 nm; Coherent Sapphire, 22 mW laser.) which is proportional to the cellular uptake. Data were analysed with FACSDiVa 5.0 software.

The test system of series [4] is CHO-K1 cells. As to the kind of experiment: Absolute quantification of total internalised peptide by fluorometry. Conditions: for Total (37 °C–4 °C) (pmoles) Endocyt. / 4 °C/37 °C (Fluoro): CHO-K1, 60 min; for Total (37 °C–4 °C) (pmoles) Endocyt.: difference of fluorometry values at 37 °C and 4 °C; for 4 °C/37 °C (Fluoro): internalisation ratio by fluorometry; for Total 4 °C (pmoles) Transloc. / Total 37 °C (pmoles) Endocyt. + Transloc.: one million CHO-K1 cells, DMEM-F12, 60 min, cell lysis, fluorometry 525 nm vs calibration curve, mean values; for Total 4 °C (pmoles) Transloc.: pronase wash; for Total 37 °C (pmoles) Endocyt. + Transloc.: trypsin wash. The procedure:
We used the quantification method described earlier (Illien et al. [2016]). […] After incubation with peptides and washing the cells with HBSS, 500 μL 0.05% trypsin/EDTA 0.05% (37 °C) or 500 µL pronase 0.05% in 100 mM Tris pH 7.4 (4 °C) was added for 5 min to hydrolyze the remaining extracellular peptide, the membrane-bound peptide and to detach cells. After addition of 100 µL enzyme inhibitors (complete mini at 4 °C (Roche) or trypsin inhibitor (soybean inhibitor 5 mg/mL) at 37 °C mixed with 100 μL bovine serum albumin (1 mg/mL), cells were transferred into a microtube, centrifuged, washed with 1 mL 50 mM Tris buffer pH 7.4, 0.1% BSA, and lysed in 200 μL 50 mM Tris pH 7.4, 1 M NaCl, 1% Nonident P40. The samples were then sonicated for 15 min (to homogenise samples) and centrifugated for 10 min at 16.000 g. Fluorescence intensity in the supernatants was monitored with a MOS 200 M fluorimeter (Biologic SAS) and the maximal intensity was detected around λ = 525 nm. The maximal intensity was retained for the calibration curve and for quantification of samples. The amount of internalised peptides was calculated by comparing the fluorescence intensity of the sample with the calibration curve. For the calibration curve, we prepared a range of peptide amounts (from 2 to 500 pmol) in the lysis buffer (50 mM Tris pH 7.4, 1 M NaCl, 1% Nonidet P40) in the presence of one million suspended cells. The samples were sonicated 15 min and centrifuged at 16.000 g for 10 min. Fluorescence intensity in the supernatants was monitored with a MOS 200 M fluorimeter (Biologic SAS, France) and the maximal intensity was detected around λ = 525 nm. The fluorescence signal of peptides only was obtained by subtracting the fluorescence intensity of cell lysates (autofluorescence) from the fluorescence intensity of the sample.

On to `COc1cccc2c1C(=O)c1c(O)c3c(c(O)c1C2=O)C[C@@](O)(C(C)=O)C[C@@H]3O[C@H]1C[C@H](NC(=O)CCC(=O)O)[C@H](O)[C@H](C)O1` [Suc–Dau, reference compound], for which the IC50 with MCF-7 cells was 24.5 ± 7.1 µM; with MDA-MB-231 cells, above 100 µM; in the series with HL-60 cells [1] it was 33.5 ± 1.1 µM.
For `CN(C)c1ccc(/N=N/c2ccc(C(=O)N[C@@H](CCCNC(=N)N)C(=O)N[C@@H](CCCNC(=N)N)C(=O)N[C@@H](CCCNC(=N)N)C(=O)N[C@@H](CCCNC(=N)N)C(=O)N[C@@H](CCCCNC(=O)c3ccc4c(c3)C(=O)OC43c4ccc(O)cc4Oc4cc(O)ccc43)C(N)=O)cc2)cc1` [Dabcyl–Arg4–Lys(Cf)–NH2] (X1-RRRRK(5FAM)-NH2), the “4 °C/37 °C (Flow cyto.)” value amounted to 0.17 in the series with CHO-K1 cells [2] ([peptide] 1 μM), 0.12 with CHO-K1 cells [2] ([peptide] 2.5 μM), 0.10 with CHO-K1 cells [2] ([peptide] 5 μM) and 0.04 with CHO-K1 cells [2] ([peptide] 10 μM). In addition, the “Fluorescence intensity of the cells, times higher than hexaarginine” value in the series on HL-60 cells [3] was 1.6 times and 2.8 times. In addition, the “Total (37 °C–4 °C) (pmoles) Endocyt.” value is 0.3 pmol with CHO-K1 cells [4] ([peptide] 1 μM), 1.3 pmol in the series with CHO-K1 cells [4] ([peptide] 2.5 μM), 6 pmol in the series with CHO-K1 cells [4] ([peptide] 5 μM) and 26 pmol in the series on CHO-K1 cells [4] ([peptide] 10 μM). Moreover, the “4 °C/37 °C (Fluoro)” value was 0.57 in the series with CHO-K1 cells [4] ([peptide] 1 μM), 0.43 in the series with CHO-K1 cells [4] ([peptide] 2.5 μM), 0.22 with CHO-K1 cells [4] ([peptide] 5 μM) and 0.14 in the series with CHO-K1 cells [4] ([peptide] 10 μM). For the same compound, the “Total 4 °C (pmoles) Transloc.” value amounted to 0.4 ± 0.06 pmol in the series on CHO-K1 cells [4] ([peptide] 1 μM), 0.9 ± 0.1 pmol with CHO-K1 cells [4] ([peptide] 2.5 μM), 1.8 ± 0.1 pmol in the series on CHO-K1 cells [4] ([peptide] 5 μM) and 4.2 ± 0.3 pmol in the series with CHO-K1 cells [4] ([peptide] 10 μM). Also, the “Total 37 °C (pmoles) Endocyt. + Transloc.” value in the series on CHO-K1 cells [4] ([peptide] 1 μM) was 0.7 ± 0.1 pmol; with CHO-K1 cells [4] ([peptide] 2.5 μM), 2.2 ± 0.2 pmol; with CHO-K1 cells [4] ([peptide] 5 μM), 7.8 ± 0.9 pmol; in the series with CHO-K1 cells [4] ([peptide] 10 μM), 30 ± 3.3 pmol.
For the compound “Dabcyl–RRRRK(MTX)–NH2 [Dabcyl–Arg4–Lys(MTX)–NH2]”, the concentration for half-maximal inhibition (IC50) with MDA-MB-231 cells came out at 70.9 ± 30.1 µM.
In the case of “Dabcyl–RRRRRRK(MTX)–NH2 [Dabcyl–Arg6–Lys(MTX)–NH2]”, the IC50 in the series on MCF-7 cells amounted to 46.4 ± 18.5 µM; in the series with MDA-MB-231 cells, 50.2 ± 16 µM.
